Data on two molecules can be found in patent publication US20230310409A1, “TREATING RHEUMATOID ARTHRITIS” (BRISTOL-MYERS SQUIBB COMPANY, priority 2020, published 2023).

Common to all, as to format: in vivo, mice (male DBA/1)
Series [1] has as its system IL-6. As to the kind of experiment: Plasma IL-6 at termination in collagen-induced arthritis model. The note with it: Compound (I) alone, 0.25 and 2.5 mg/kg.
Description: Male DBA/1 mice (9-11 weeks of age, Harlan) were primed with bovine type II collagen (Chondrex #20021) in adjuvant (Sigma adjuvant system, Sigma Aldrich #S6322) at the base of tail on day 1 and on day 21. Mice were randomized into 7 groups based on body weight and assigned as either vehicle (10% ethanol; 45% PEG 300; 5% pluronic F-68; 40% 20 mM citrate buffer); Compound (I) at 0.25 and 2.5 mg/kg or mEnbrel (mouse Enbrel) at 10 mg/kg or combination of Compound (I) with mEnbrel at 0.25+10 mg/kg and 2.5+10 mg/kg or mCTLA4 (mouse CTLA4-Ig) (as a reference compound) at 3 mg/kg dose level. Compound (I) was administered from day 21 by oral gavage once daily whereas mEnbrel and mCTLA4 were administered from day of primary immunization, twice per week by intraperitoneal injection. Disease activity was monitored and scored twice per week using standard criteria (0: normal; 1: mild, but definite redness and swelling of the ankle or wrist, or apparent redness and swelling limited to individual digits regardless of number of affected digits; 2: moderate redness and swelling of ankle or wrist; 3: severe redness and swelling of the entire paw including digits; 4: maximally inflamed limb with involvement of multiple joints). […] At the time of termination (A) serum anti-collagen antibody titer and (B) plasma IL-6 was assessed. […]
The subject of series [2] is anti-collagen antibodies. As to the kind of experiment: Serum anti-collagen antibody titer at termination in collagen-induced arthritis model. The following applies: Compound (I) alone, 0.25 and 2.5 mg/kg. The protocol:
(§1) Male DBA/1 mice (9-11 weeks of age, Harlan) were primed with bovine type II collagen (Chondrex #20021) in adjuvant (Sigma adjuvant system, Sigma Aldrich #S6322) at the base of tail on day 1 and on day 21. Mice were randomized into 7 groups based on body weight and assigned as either vehicle (10% ethanol; 45% PEG 300; 5% pluronic F-68; 40% 20 mM citrate buffer); Compound (I) at 0.25 and 2.5 mg/kg or mEnbrel (mouse Enbrel) at 10 mg/kg or combination of Compound (I) with mEnbrel at 0.25+10 mg/kg and 2.5+10 mg/kg or mCTLA4 (mouse CTLA4-Ig) (as a reference compound) at 3 mg/kg dose level. […] Disease activity was monitored and scored twice per week using standard criteria (0: normal; 1: mild, but definite redness and swelling of the ankle or wrist, or apparent redness and swelling limited to individual digits regardless of number of affected digits; 2: moderate redness and swelling of ankle or wrist; 3: severe redness and swelling of the entire paw including digits; 4: maximally inflamed limb with involvement of multiple joints). […]
FIG. 2: Inhibition of circulating markers by Compound (I) alone and in combination with mEnbrel. […] At the time of termination (A) serum anti-collagen antibody titer and (B) plasma IL-6 was assessed. […]

Series [3] can be described thus: Pharmacokinetics of Compound (I) in CIA model, whole blood (DBS) drug concentration by LCMS. As for the experimental part:
as §1
FIG. 3: Pharmacokinetic analysis of Compound (I) in CIA model of arthritis. […] Following 19 days of dosing, whole blood was drawn at different time points and DBS drug concentrations were measured by LCMS. […]

In series [4] the test system is collagen-induced arthritis model. As to the kind of experiment: Collagen-induced arthritis in mice, clinical score (arthritic index). The following applies: for disease score: mouse CIA, Compound (I) 0.25 mg/kg oral once daily from day 21, mEnbrel 10 mg/kg i.p. twice per week from primary immunization, combination 0.25+10 mg/kg.
Description: Male DBA/1 mice (9-11 weeks of age, Harlan) were primed with bovine type II collagen (Chondrex #20021) in adjuvant (Sigma adjuvant system, Sigma Aldrich #S6322) at the base of tail on day 1 and on day 21. Mice were randomized into 7 groups based on body weight and assigned as either vehicle (10% ethanol; 45% PEG 300; 5% pluronic F-68; 40% 20 mM citrate buffer); Compound (I) at 0.25 and 2.5 mg/kg or mEnbrel (mouse Enbrel) at 10 mg/kg or combination of Compound (I) with mEnbrel at 0.25+10 mg/kg and 2.5+10 mg/kg or mCTLA4 (mouse CTLA4-Ig) (as a reference compound) at 3 mg/kg dose level. Compound (I) was administered from day 21 by oral gavage once daily whereas mEnbrel and mCTLA4 were administered from day of primary immunization, twice per week by intraperitoneal injection. Disease activity was monitored and scored twice per week using standard criteria (0: normal; 1: mild, but definite redness and swelling of the ankle or wrist, or apparent redness and swelling limited to individual digits regardless of number of affected digits; 2: moderate redness and swelling of ankle or wrist; 3: severe redness and swelling of the entire paw including digits; 4: maximally inflamed limb with involvement of multiple joints).
Compound (I) was tested in the semi-therapeutic mode of treatment in mouse collagen-induced arthritis model. Dosing initiated after the antigen boost (from day 21) and continued up to day 45.
Compound (I) was tested in combination with the TNFα blocking agent mEnbrel in the collagen-induced arthritis model where dosing of Compound (I) was initiated after the antigen boost whereas mEnbrel was administered from the day of primary immunization.
Mice were treated with respective treatment. During the entire study course (A) and at the time of termination (B) disease was assessed by measuring the clinical score (arthritic index). Data are from one experiment with 10 mice per group. ***P<0.0001 versus vehicle by one-way ANOVA with a Dunnett test.

Regarding `Cc1c(-c2[nH]c3ccc(C4CCN(CC(N)=O)CC4)cc3c2C(C)C)cn2ncnc2c1C` [Compound (I), 2-(4-(2-(7,8-dimethyl-[1,2,4]triazolo[1,5-a]pyridin-6-yl)-3-isopropyl-1H-indol-5-yl)piperidin-1-yl)acetamide], in series [1], the “plasma IL-6” value is reported as “dose dependent reduction”. Also, the serum anti-collagen-antibody titer result in series [2] was “dose dependent reduction”. The “whole blood drug concentration” value in series [3] (0.25 and 2.5 mg/kg oral, after 19 days of dosing, 1-24 h post dose) is recorded as “dose dependent increase”. The “whole blood concentration of Compound (I) in the presence of mEnbrel” value in series [3] (co-treatment with mEnbrel 10 mg/kg) is recorded as “not altered”. Further, the “arthritic score at the termination of the study” value in series [4] (Compound (I) alone, 0.25 and 2.5 mg/kg oral once daily from day 21) is on record as “Significant dose dependent suppression”. Further, the disease score in series [4] is reported as 82 % of control. The “inhibition of clinical signs of disease, earliest time” value in series [4] (semi-therapeutic mode, dosing from day 21 up to day 45, 0.25 and 2.5 mg/kg oral once daily) turned out to be 7 days post dosing.

B1: mEnbrel: fully mouse version of Enbrel: mouse TNFR1B extracellular domain (Val-23 to Gly-258) fused to mouse IgG2A, TNFα blocking agent (protein, listed as Mus musculus)
chain: MRAWIFFLLCLAGRALAVPAQVVLTPYKPEPGYECQISQEYYDRKAQMCCAKCPPGQYVKHFCNKTSDTVCADCEASMYTQVWNQFRTCLSCSSSCTTDQVEIRACTKQQNRVCACEAGRYCALKTHSGSCRQCMRLSKCGPGFGVASSRAPNGNVLCKACAPGTFSDTTSSTDVCRPHRICSILAIPGNASTDAVCAPESPTLSAIPRTLYVSQPEPTRSQPLDQEPGPSQTPSILTSLGSTPIIEQSTKGGEPRGPTIKPCPPCKCPAPNLLGGPSVFIFPPKIKDVLMISLSPIVTCVVVDVSEDDPDVQISWFVNNVEVHTAQTQTHREDYNSTLRVVSALPIQHQDWMSGKEFKCKVNNKDLPAPIERTISKPKGSVRAPQVYVLPPPEEEMTKKQVTLTCMVTDFMPEDIYVEWTNNGKTELNYKNTEPVLDSDGSYFMYSKLRVEKKNWVERNSYSCSVVHEGLHNHHTTKSFSRTPGK
modifications: SIGNAL (1)..(17) Osteonectin signal sequence; (18)..(253) Mouse TNFR1B (V23 - G258); (254)..(486) Mouse IgG2a
For the molecule B1, the disease score in series [4] is reported as 56 % of control.
